The text below walks through data of patent US20120136033A1, “Small Molecule Antagonists of Phosphatidylinositol-3,4,5-Triphosphate (PIP3) and Uses Thereof” (President and Fellows of Harvard College, priority 2009, published 2012).

The target of one series is T1, Akt PH domain (Homo sapiens, UniProt P31749).
T1 construct: Akt PH domain-GFP, VAV2-GFP and VAV3-GFP vectors were generous gifts of Dr. Joanne Brugge; expressed in transfected cells
Put plainly: PH domain translocation assay, GFP-fused Akt PH domain. The format is cell-based. The following applies: 100 μM, 2 hr, PDGF stimulation. How it is done: (§1) Cells were transfected with the corresponding GFP-fusion vectors, serum starved overnight, and incubated with 100 μM PITs or PIT-1is for 2 hr, followed by stimulation with 100 ng/ml PDGF or 250 ng/ml PMA for 5 min. The translocation was analyzed using fluorescent microscope and was quantitated by counting the number of cells with translocated PH domains in five random fields.
(§2) To begin characterizing cellular activity of PITs, a PH domain translocation assay was performed, measuring PIP3-induced association of GFP-fused PH domains with the plasma membrane. This method provides useful means for monitoring status of the PH domain/PIP3 binding in the intact cells. Varnai P et al. (1999) J Biol Chem 274:10983-9. Several PH-domain-containing proteins, which are known to bind PIP3 specifically and efficiently, were examined. […] Oikawa T et al. (2004) Nat Cell Biol 6:420-6.

In series [1] the test system is SV40-transformed mouse adult lung fibroblasts. The series can be described thus: loss of viability, Akt1-expressing vs Akt1-3 triple knockout lung fibroblasts. It counts as cell-based. Conditions: P<0.01. The text has this: Shaughnessy J D (2008) Nature 454:172-3; Weinstein I G (2002) Science 297:63-4. Therefore, the possibility that PIT-1 may cause preferential cell death in the cells containing elevated PIP3 levels was examined. […] Li D M et al. (1998) Proc Natl Acad Sci USA 95:15406-11. […] This observation is consistent with the notion that PTEN-deficient cancer cells become overly dependent on PIP3 signaling and, therefore, are hypersensitive to disruption of this pathway compared to wild-type PTEN-expressing cells. Neshat M S et al. (2001) Proc Natl Acad Sci USA 98:10314-9.

The target in a further series is T2, Btk PH domain (Homo sapiens, UniProt Q06187).
T2 construct: Btk PH domain-GFP vector was purchased from Signagen Laboratories
The series can be described thus: PH domain translocation assay, GFP-fused Btk PH domain. The following applies: 100 μM, 2 hr, PDGF stimulation. It counts as cell-based. How it is done: as §1, §2

The test system of series [2] is Bax/Bak double knockout mouse embryonic fibroblasts. The series can be described thus: cell killing in Bax/Bak double knockout vs wild-type cells. It counts as cell-based.
Protocol: Bax/Bak double knockout mouse embryonic fibroblasts (Wei M C et al. (2001) Science 292:727-30) and matched wild-type cells were a generous gift of Dr. Stanley Korsmeyer (Dana-Farber Cancer Center). B16-F10, U87MG, 4T1, A549, MDA-MB-231 and fibroblast cells were cultured in DMEM medium with 10% fetal bovine serum (FBS). SUM159 was maintained in Ham's F-12 medium with 5% FBS, 5 μg/ml insulin, and 1 μg/ml hydrocortisone. HUVEC cells were cultured in M199 medium with 20% FBS, 20 μg/ml ECGS, and 50 μg/ml heparin. All media were supplemented with 100 units/ml penicillin, 100 μg/ml streptomycin, and 2 mM glutamine. All cells were cultured in a humidified atmosphere of 95% air and 5% CO2 at 37° C.
For a further series, the system named is cells. The series can be described thus: cell death under glucose/glutamine deprivation. The format is cell-based. An excerpt:
Elstrom R L et al. (2004) Cancer Res 64:3892-9.

The next series has as its system human cancer cells. The series can be described thus: transwell (Boyden chamber) migration of cancer cells. The format is cell-based. The following applies: for inhibition of cancer cell migration: transwell / wound healing models. How it is done:
Two models of cell migration were used, a transwell migration model and a wound closure model. Migration of cancer and endothelial cells was evaluated using 24-transwell Boyden chamber (Costar, Bedford, Mass.) with a polystyrene membrane (6.5 mm diameter, 10 μm thickness, and 8 μm pore size). Cells were suspended in serum-free media and seeded in the upper compartment of each well (2×10^4 cells/well) in the presence or absence of different compounds at the indicated concentrations. The lower compartment contained 600 μl of serum-free culture media supplemented with growth factors. After an 8-hr incubation at 37° C., cells were fixed and stained with 0.1% crystal violet. Non-migrating cells on the upper surface of the filter were removed, and the stained cells that migrated to the lower side were photographed using a phase-contrast microscope (Nikon, Japan) in five random fields. The cells were lysed with 10% acetic acid, and colorimetric determination was made at 595 nm using Wallac Victor 3 plate reader.

For the next series, the system named is cancer cells. The format is cell-based.
Another series concerns SUM159 cells. Put plainly: cell polarization in wounded SUM159 monolayers. It counts as cell-based, human. Conditions: 100 μM, 2 hr. How it is done:
In order to measure cell polarization, wounds were generated in SUM159 cell monolayers, followed by serum starvation and treatment with 100 μM PIT-1, PIT-2, PIT-1i-1, or PIT-1i-2 for 2 hr. Cells were stimulated for 15 min with 100 ng/ml PDGF, fixed and stained with TRITC-phalloidin for F-actin (red), acetylated tubulin antibody (green) for microtubule organization center (MTOC), and Hoechst for nuclei (blue). Cell polarization was evaluated by analysis of the relative location of the MTOC and nucleus. […] The number of polarized cells was counted in five random fields under fluorescent microscope.

A further series deals with T3, VAV2 (Homo sapiens, UniProt P52735).
T3 construct: expressed in transfected cells; host or cells: SUM159
Put plainly: plasma membrane translocation assay, VAV2-GFP. The format is cell-based. The following applies: PDGF stimulation. How it is done:
as §2

In a further series the test system is Rac1. Put plainly: Rac1 activation pull-down (GST-Pak1-PBD) in SUM159 cells. The format is cell-based, human. The following applies: 2 hr, PDGF 100 ng/ml. How it is done: Rho/Rac family, especially Rac1, plays a critical role in actin polymerization, membrane ruffling/lamellipodia formation, and cell motility (Ridley A J et al. (1992) Cell 70:401-410) downstream of the GEFs, e.g., VAV family, and upstream of the WAVE family. The effect of PITs on Rac1 activation was therefore analyzed. SUM159 cells were seeded on 10 cm^2 plates and serum starved overnight, treated with different PIT compounds at a variety of concentrations for 2 hr, and then stimulated with 100 ng/ml PDGF for […]. Next, cells were rinsed once with PBS, and 1 ml lysis buffer (25 mM Tris-HCl, pH 7.5, 150 mM NaCl, 5 mM MgCl2, 1% NP-40, 1 mM DTT, 5% glycerol, 1 μg/ml aprotinin, 1 μg/ml leupeptin and 1 mM PMSF) was added per plate. The cells were scraped and transferred to a microcentrifuge tube, vortexed briefly, and incubated on ice for 5 min, followed by a centrifugation at 16,000×g at 4° C. for 15 min. The supernatant was collected. A sample of the lysate was used to ensure equal protein concentration in the samples. Next, 700 μl lysate, 20 μl glutathione-sepharose beads, and 20 μg GST-human Pak1-PBD were mixed together, and the reaction mixture was incubated at 4° C. for 1 hr with gentle rocking. The beads were then washed three times with lysis buffer, and proteins were eluted by boiling beads in 50 μl of the 2×SDS sample buffer at 95-100° C. for 5 min. […]

T1 sequence (P31749 5-108 limits assumed): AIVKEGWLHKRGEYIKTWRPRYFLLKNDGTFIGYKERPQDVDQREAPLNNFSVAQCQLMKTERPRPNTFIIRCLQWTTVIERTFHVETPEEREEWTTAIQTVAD
T3 sequence (P52735 whole entry, species assumed): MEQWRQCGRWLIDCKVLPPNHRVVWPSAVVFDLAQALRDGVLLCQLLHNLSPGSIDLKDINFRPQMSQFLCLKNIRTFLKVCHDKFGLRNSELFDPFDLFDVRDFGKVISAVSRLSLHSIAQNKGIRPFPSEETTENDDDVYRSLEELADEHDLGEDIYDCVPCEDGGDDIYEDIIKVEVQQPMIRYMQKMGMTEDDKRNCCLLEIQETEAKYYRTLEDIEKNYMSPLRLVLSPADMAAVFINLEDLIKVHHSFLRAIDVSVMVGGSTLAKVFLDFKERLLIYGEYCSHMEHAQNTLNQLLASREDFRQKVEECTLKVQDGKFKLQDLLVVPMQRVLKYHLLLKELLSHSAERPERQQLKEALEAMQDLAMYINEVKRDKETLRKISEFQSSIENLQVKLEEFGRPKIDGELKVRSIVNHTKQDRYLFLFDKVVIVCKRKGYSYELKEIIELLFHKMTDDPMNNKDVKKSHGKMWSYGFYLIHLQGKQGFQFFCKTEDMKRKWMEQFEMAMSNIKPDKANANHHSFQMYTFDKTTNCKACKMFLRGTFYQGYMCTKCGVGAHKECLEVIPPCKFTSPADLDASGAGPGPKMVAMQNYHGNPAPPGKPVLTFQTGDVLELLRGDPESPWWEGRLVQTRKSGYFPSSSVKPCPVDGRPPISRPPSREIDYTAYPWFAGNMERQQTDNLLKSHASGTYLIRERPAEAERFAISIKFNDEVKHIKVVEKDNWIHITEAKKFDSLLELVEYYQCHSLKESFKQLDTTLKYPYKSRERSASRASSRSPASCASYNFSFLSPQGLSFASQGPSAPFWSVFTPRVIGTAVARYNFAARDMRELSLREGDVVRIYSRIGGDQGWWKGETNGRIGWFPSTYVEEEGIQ
T2 sequence (Q06187 3-133 limits assumed): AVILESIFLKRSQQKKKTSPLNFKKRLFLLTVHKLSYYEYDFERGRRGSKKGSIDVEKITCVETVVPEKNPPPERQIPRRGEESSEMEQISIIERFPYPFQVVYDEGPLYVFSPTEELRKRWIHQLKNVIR

Take `O=C(NC(=S)Nc1cc([N+](=O)[O-])cc(Cl)c1O)c1ccccc1` [PIT-1]: at Akt PH domain, the “inhibition of translocation of Akt PH domain to the plasma membrane” value is “significantly inhibited”. Further, the “loss of viability in Akt1-expressing fibroblasts compared to Akt1-3 triple knockout cells” value in [1] is “more pronounced”. The “inhibition of translocation of Btk PH domain to the plasma membrane” value at Btk PH domain was “significantly inhibited”. Besides, the “killing of Bax/Bak double knockout cells compared with wild-type cells” value in [2] was “reduced in Bax/Bak double knockout cells”. In the series with cells, the “cell death in combination with glucose/glutamine deprivation” value was “dramatic induction of cell death”. In addition, the “growth factor-induced transwell migration of human cancer cells” value in the series on human cancer cells (8 hr) is recorded as “substantially inhibited”. In addition, the “inhibition of cancer cell migration” value with human cancer cells is given as “much stronger than that of Akt kinase inhibitor VIII”. Further, the “cancer cell invasion through matrigel” value in the series with cancer cells is recorded as “efficiently suppressed”. Besides, the “cytotoxic effects at the low concentrations used in migration and invasion experiments” value with cancer cells (P>0.05) is “no significant cytotoxic effects”. In the series on SUM159 cells, the “cell polarization and lamellipodia formation induced by PDGF, wound healing model” value is recorded as “effective at preventing cell polarization”. Moreover, the “inhibition of translocation of VAV2 to the plasma membrane” value at VAV2 is “significantly inhibited”. Besides, in the series with Rac1, the “activation of Rac1 caused by growth factor stimulation” value is “efficiently suppressed”.
As for `O=C1NC(=S)S/C1=C\c1cc(O)c([N+](=O)[O-])cc1Cc1ccccc1` [PIT-2], the “inhibition of translocation of Akt PH domain to the plasma membrane” value at Akt PH domain is listed as “significantly inhibited”. The “loss of viability in Akt1-expressing fibroblasts compared to Akt1-3 triple knockout cells” value in series [1] is listed as “more pronounced”. Besides, the “inhibition of translocation of Btk PH domain to the plasma membrane” value against Btk PH domain is “significantly inhibited”. Also, the “killing of Bax/Bak double knockout cells compared with wild-type cells” value in [2] is on record as “reduced in Bax/Bak double knockout cells”. Also, the “cell death in combination with glucose/glutamine deprivation” value in the series on cells is “dramatic induction of cell death”. Further, the “inhibition of cancer cell migration” value in the series on human cancer cells is listed as “efficiently inhibited cell migration”. The “cancer cell invasion through matrigel” value in the series on cancer cells was “efficiently suppressed”. For the same molecule, in the series on SUM159 cells, the “cell polarization and lamellipodia formation induced by PDGF, wound healing model” value is “effective at preventing cell polarization”. In addition, the “inhibition of translocation of VAV2 to the plasma membrane” value against VAV2 was “significantly inhibited”. Further, the “activation of Rac1 caused by growth factor stimulation” value in the series on Rac1 was “efficiently suppressed”.
